According to patent US20240358831A1, “SELECTION OF IMMUNE CELLS USING PEPTIDE MHC COMPLEXES GENERATED BY CONDITIONAL LIGAND EXCHANGE” (IMMATICS US, INC., priority 2021, published 2024):

Tested on: CD8+ T cells
Assay: In vitro priming of CD8+ T cells with aAPCs (pHLA/anti-CD28) and pHLA multimer staining
Format: cell-based, human
Experimental: To perform in vitro stimulations by artificial antigen-presenting cells (aAPCs) loaded with peptide-HLA complexes (pHLA) and anti-CD28 antibody, the inventors first isolated CD8+ T cells via positive selection using CD8 microbeads (Miltenyi Biotec, Bergisch-Gladbach, Germany) from fresh HLA-matched leukapheresis products of healthy donors obtained from the University clinics Mannheim, Germany, after informed consent.
PBMCs and isolated CD8+ lymphocytes were incubated in T cell medium (TCM) until use consisting of RPMI-Glutamax (Thermo Fisher Scientific, Waltham, USA) supplemented with 10% heat-inactivated human AB serum (CC Pro, Oberdorla, Germany), 100 U/ml Penicillin/100 μg/ml Streptomycin (Biozym, Hessisch Oldendorf, Germany), 1 mM sodium pyruvate (CC Pro, Oberdorla, Germany) and 20 μg/ml Gentamycin (Biozym, Hessisch Oldendorf, Germany). 2.5 ng/ml IL-7 (PromoCell, Heidelberg, Germany) and 10 U/ml IL-2 (Novartis Pharma, Nürnberg, Germany) were also added to the TCM at this step.
The purified co-stimulatory mouse IgG2a anti human CD28 Ab 9.3 (Jung et al., 1987) was chemically biotinylated using sulfo-N-hydroxysuccinimidobiotin as recommended by the manufacturer (Perbio, Bonn, Germany). Beads used were 5.6 μm diameter streptavidin coated polystyrene particles (Bangs Laboratories, Illinois, USA).
800.000 beads/200 μl were coated in 96-well plates in the presence of up to four different biotinylated pHLA complexes (total amount 50 ng/well), washed and 600 ng biotinylated anti-CD28 were added subsequently in a volume of 200 μl/well.
Stimulations were initiated in 96-well plates by co-incubating 1×10^6 CD8+ T cells with 2×10^5 washed aAPCs in 200 μl TCM supplemented with 5 ng/ml IL-12 (PromoCell) for 3 days at 37° C. Half of the medium was then exchanged by fresh TCM supplemented with 80 U/ml IL-2 and incubation was continued for 4 days at 37° C. This stimulation cycle was performed for a total of three times. […]
For the pHLA multimer readout using up to eight different pHLA molecules per condition, a two-dimensional combinatorial coding approach was used as previously described (Andersen et al., 2012a; Andersen et al., 2012b) with minor modifications encompassing coupling to 5 different fluorochromes.
Finally, multimeric analyses were performed by staining the cells with Live/dead near IR dye (Thermo Fisher Scientific, Waltham, USA), CD8-FITC antibody clone SK1 (BD, Heidelberg, Germany) and fluorescent pHLA multimers. […] Peptide-specific cells were calculated as percentage of total CD8+ cells. […] In vitro priming of specific multimer+CD8+ lymphocytes was detected by comparing to negative control stimulations.

KILGFVF(X)V [FLUM-003]
Presence of peptide specific cells by multimer staining (standard refolded multimers) (after stimulation with A*02:01_FLUM-003×MLA-001, FIG. 3 C+D): confirmed the presence | Detection of conditional ligand specific cells by multimer staining with EC monomers from the same UV monomer (priming with HLA-A*02_FLUM-003×CMV-001, FIG. 6 Plate B, stimulation position 1 and 2): FLUM-003 specific cells were stimulated and detected

RL(X)VGSIPR [HNRNPR-002]
UV peptide-specific T cell populations (multimer+ cells among CD8+ cells) (stimulated with pHLA obtained after UV exchange A*03:01_HNRNPR-002×HADV-014 (residual UV monomer), three cycles, FIG. 5 B): 6.7 % of CD8+ cells

SARPPL(X)SV [MUDENG-002]
UV peptide-specific T cell populations (multimer+ cells among CD8+ cells) (stimulated with standard refolded pHLA B*07:02_MUDENG-002, three cycles of stimulation, FIG. 5 A): 2.4 % of CD8+ cells
